In US20100160351A1, “PHARMACEUTICAL COMPOSITIONS AND METHODS FOR TREATING HYPERURICEMIA AND RELATED DISORDERS” (NUON THERAPEUTICS, INC., priority 2008, published 2010):

Tested on: serum uric acid (sUA) levels in hyperuricemic patients
Test: PRESTO study: change in serum uric acid in hyperuricemic patients (baseline >=8 mg/dL), Tranilast twice daily for 1 or 3 months
Assay type: in vivo, human
Method: The PRESTO (Prevention of Restenosis with Tranilast and its Outcomes) study was a multicenter study of ˜11,500 patients undergoing percutaneous transluminal coronary revascularization (PTCR) with or without stenting for single or multiple vessels over a 9-month period. The study compared the composite clinical event rate of death, myocardial infarction, or need for ischemia-driven target vessel revascularization in patients treated with Tranilast (300 and 450 mg twice daily) for 1 or 3 months versus placebo. Description of the study protocol and patient population can be found in Holmes et al., The PRESTO (Prevention of Restenosis with Tranilast and its Outcomes) protocol: A double-blind, placebo-controlled trial, Am Heart J 2000; 139:23-31; and Holmes et al., Results of Prevention of REStenosis with Tranilast and its Outcomes (PRESTO) Trial, Circulation. 2002; 106:1243, both of which are incorporated by reference herein in their entirety.
Gout was a contraindication for patient enrollment in the PRESTO trial. Nevertheless, 1100 patients enrolled in the trial were identified with baseline hyperuricemia defined as initial serum uric acid (sUA) levels greater than or equal to 7 mg/dL. Of these, approximately 300 participants had baseline serum uric acid levels greater than or equal to 8 mg/dL. […] As indicated in FIG. 1 and Table 4, some patients were treated with placebo, some patients were treated with Tranilast for 4 weeks followed by placebo, and some patients were treated with Tranilast for 12 weeks.

COc1ccc(/C=C/C(=O)Nc2ccccc2C(=O)O)cc1OC [Tranilast, 2-[[3-(3,4-dimethoxyphenyl)-1-oxo-2-propenyl]amino]benzoic acid]
Change from Baseline in Uric Acid, Max (3M TRAN 300 mg, Follow-Up): 3.04 mg/dL | Change from Baseline in Uric Acid, Mean (SD) (3M TRAN 300 mg, Follow-Up): −0.00 (1.519) mg/dL | Change from Baseline in Uric Acid, Median (3M TRAN 300 mg, Follow-Up): -0.13 mg/dL | Change from Baseline in Uric Acid, Min (3M TRAN 300 mg, Follow-Up): -3.00 mg/dL | Change from Baseline in Uric Acid, Max (3M TRAN 300 mg, Post-PTCR): 1.90 mg/dL | Change from Baseline in Uric Acid, Mean (SD) (3M TRAN 300 mg, Post-PTCR): −1.81 (1.966) mg/dL | Change from Baseline in Uric Acid, Median (3M TRAN 300 mg, Post-PTCR): -1.58 mg/dL | Change from Baseline in Uric Acid, Min (3M TRAN 300 mg, Post-PTCR): -14.79 mg/dL | Change from Baseline in Uric Acid, Max (3M TRAN 300 mg, Week 1): 3.14 mg/dL | Change from Baseline in Uric Acid, Mean (SD) (3M TRAN 300 mg, Week 1): −2.96 (2.394) mg/dL | Change from Baseline in Uric Acid, Median (3M TRAN 300 mg, Week 1): -2.85 mg/dL | Change from Baseline in Uric Acid, Min (3M TRAN 300 mg, Week 1): -15.66 mg/dL | Change from Baseline in Uric Acid, Max (3M TRAN 300 mg, Week 2): 2.30 mg/dL | Change from Baseline in Uric Acid, Mean (SD) (3M TRAN 300 mg, Week 2): −2.98 (2.224) mg/dL | Change from Baseline in Uric Acid, Median (3M TRAN 300 mg, Week 2): -2.94 mg/dL | Change from Baseline in Uric Acid, Min (3M TRAN 300 mg, Week 2): -15.09 mg/dL | Change from Baseline in Uric Acid, Max (3M TRAN 300 mg, Week 3): 1.92 mg/dL | Change from Baseline in Uric Acid, Mean (SD) (3M TRAN 300 mg, Week 3): −2.92 (1.946) mg/dL | Change from Baseline in Uric Acid, Median (3M TRAN 300 mg, Week 3): -3.00 mg/dL | Change from Baseline in Uric Acid, Min (3M TRAN 300 mg, Week 3): -6.13 mg/dL | Change from Baseline in Uric Acid, Max (3M TRAN 300 mg, Week 4): 1.98 mg/dL | Change from Baseline in Uric Acid, Mean (SD) (3M TRAN 300 mg, Week 4): −2.83 (2.212) mg/dL | Change from Baseline in Uric Acid, Median (3M TRAN 300 mg, Week 4): -2.80 mg/dL | Change from Baseline in Uric Acid, Min (3M TRAN 300 mg, Week 4): -14.30 mg/dL | Change from Baseline in Uric Acid, Max (3M TRAN 300 mg, Week 6): 8.50 mg/dL | Change from Baseline in Uric Acid, Mean (SD) (3M TRAN 300 mg, Week 6): −2.75 (2.755) mg/dL | Change from Baseline in Uric Acid, Median (3M TRAN 300 mg, Week 6): -3.00 mg/dL | Change from Baseline in Uric Acid, Min (3M TRAN 300 mg, Week 6): -15.65 mg/dL | Change from Baseline in Uric Acid, Max (3M TRAN 300 mg, Week 8): 1.70 mg/dL | Change from Baseline in Uric Acid, Mean (SD) (3M TRAN 300 mg, Week 8): −2.76 (2.451) mg/dL | Change from Baseline in Uric Acid, Median (3M TRAN 300 mg, Week 8): -2.71 mg/dL | Change from Baseline in Uric Acid, Min (3M TRAN 300 mg, Week 8): -15.77 mg/dL | Change from Baseline in Uric Acid, Max (3M TRAN 300 mg, Week 10): 2.30 mg/dL | Change from Baseline in Uric Acid, Mean (SD) (3M TRAN 300 mg, Week 10): −2.97 (2.490) mg/dL | Change from Baseline in Uric Acid, Median (3M TRAN 300 mg, Week 10): -2.98 mg/dL | Change from Baseline in Uric Acid, Min (3M TRAN 300 mg, Week 10): -15.65 mg/dL | Change from Baseline in Uric Acid, Max (3M TRAN 300 mg, Week 12): 3.60 mg/dL | Change from Baseline in Uric Acid, Mean (SD) (3M TRAN 300 mg, Week 12): −2.74 (2.634) mg/dL | Change from Baseline in Uric Acid, Median (3M TRAN 300 mg, Week 12): -2.69 mg/dL | Change from Baseline in Uric Acid, Min (3M TRAN 300 mg, Week 12): -16.02 mg/dL | Change from Baseline in Uric Acid, Max (3M TRAN 450 mg, Follow-Up): 1.80 mg/dL | Change from Baseline in Uric Acid, Mean (SD) (3M TRAN 450 mg, Follow-Up): −0.67 (1.277) mg/dL | Change from Baseline in Uric Acid, Median (3M TRAN 450 mg, Follow-Up): -0.70 mg/dL | Change from Baseline in Uric Acid, Min (3M TRAN 450 mg, Follow-Up): -2.90 mg/dL | Change from Baseline in Uric Acid, Max (3M TRAN 450 mg, Post-PTCR): 1.70 mg/dL | Change from Baseline in Uric Acid, Mean (SD) (3M TRAN 450 mg, Post-PTCR): −2.16 (1.577) mg/dL | Change from Baseline in Uric Acid, Median (3M TRAN 450 mg, Post-PTCR): -1.90 mg/dL | Change from Baseline in Uric Acid, Min (3M TRAN 450 mg, Post-PTCR): -7.34 mg/dL | Change from Baseline in Uric Acid, Max (3M TRAN 450 mg, Week 1): 0.90 mg/dL | Change from Baseline in Uric Acid, Mean (SD) (3M TRAN 450 mg, Week 1): −3.84 (1.839) mg/dL | Change from Baseline in Uric Acid, Median (3M TRAN 450 mg, Week 1): -3.99 mg/dL | Change from Baseline in Uric Acid, Min (3M TRAN 450 mg, Week 1): -8.79 mg/dL | Change from Baseline in Uric Acid, Max (3M TRAN 450 mg, Week 2): 0.92 mg/dL | Change from Baseline in Uric Acid, Mean (SD) (3M TRAN 450 mg, Week 2): −4.05 (1.861) mg/dL | Change from Baseline in Uric Acid, Median (3M TRAN 450 mg, Week 2): -4.56 mg/dL | Change from Baseline in Uric Acid, Min (3M TRAN 450 mg, Week 2): -8.72 mg/dL | Change from Baseline in Uric Acid, Max (3M TRAN 450 mg, Week 3): 1.50 mg/dL | Change from Baseline in Uric Acid, Mean (SD) (3M TRAN 450 mg, Week 3): −2.84 (2.227) mg/dL | Change from Baseline in Uric Acid, Median (3M TRAN 450 mg, Week 3): -3.79 mg/dL | Change from Baseline in Uric Acid, Min (3M TRAN 450 mg, Week 3): -5.79 mg/dL | Change from Baseline in Uric Acid, Max (3M TRAN 450 mg, Week 4): 1.43 mg/dL | Change from Baseline in Uric Acid, Mean (SD) (3M TRAN 450 mg, Week 4): −3.70 (2.190) mg/dL | Change from Baseline in Uric Acid, Median (3M TRAN 450 mg, Week 4): -3.90 mg/dL | Change from Baseline in Uric Acid, Min (3M TRAN 450 mg, Week 4): -8.40 mg/dL | Change from Baseline in Uric Acid, Max (3M TRAN 450 mg, Week 6): 2.70 mg/dL | Change from Baseline in Uric Acid, Mean (SD) (3M TRAN 450 mg, Week 6): −3.89 (2.265) mg/dL | Change from Baseline in Uric Acid, Median (3M TRAN 450 mg, Week 6): -4.39 mg/dL | Change from Baseline in Uric Acid, Min (3M TRAN 450 mg, Week 6): -8.69 mg/dL | Change from Baseline in Uric Acid, Max (3M TRAN 450 mg, Week 8): 1.40 mg/dL | Change from Baseline in Uric Acid, Mean (SD) (3M TRAN 450 mg, Week 8): −3.65 (2.104) mg/dL | Change from Baseline in Uric Acid, Median (3M TRAN 450 mg, Week 8): -3.83 mg/dL | Change from Baseline in Uric Acid, Min (3M TRAN 450 mg, Week 8): -7.16 mg/dL | Change from Baseline in Uric Acid, Max (3M TRAN 450 mg, Week 10): 1.50 mg/dL | Change from Baseline in Uric Acid, Mean (SD) (3M TRAN 450 mg, Week 10): −3.73 (2.306) mg/dL | Change from Baseline in Uric Acid, Median (3M TRAN 450 mg, Week 10): -4.10 mg/dL | Change from Baseline in Uric Acid, Min (3M TRAN 450 mg, Week 10): -8.60 mg/dL | Change from Baseline in Uric Acid, Max (3M TRAN 450 mg, Week 12): 0.50 mg/dL | Change from Baseline in Uric Acid, Mean (SD) (3M TRAN 450 mg, Week 12): −3.79 (2.065) mg/dL | Change from Baseline in Uric Acid, Median (3M TRAN 450 mg, Week 12): -4.30 mg/dL | Change from Baseline in Uric Acid, Min (3M TRAN 450 mg, Week 12): -8.12 mg/dL | serum uric acid levels in patients treated with Tranilast (analysis of PRESTO data, 300 and 450 mg twice daily): markedly decreased
